Data reported in patent US4731383A, “Aminoguanidine compounds, their compositions and pharmaceutical uses” (Biogal Gyogyszergyar, priority 1983, dated 1988).
Structures can show the parent of a compound that is named as a salt. Where two headings read alike, the source gives them in different places.

What was measured:
[1] = tested on: mice treated with aconitin; experiment: animal or person; assay type: in vivo; conditions: Mus musculus, read-out: Delay in the appearance time of arrhythmia
Experimental: Arrhytmia was induced in male mice, weighing 20 to 25 g, by treating them continuously, at a rate of 0.2 ml/min with an infusion containing 5 μg/kg of aconitin. The test compound was administered to the animals either intraperitoneally (by injecting it into the abdominal cavity) 15 minutes before the start of the infusion, or orally 60 minutes before the onset of the infusion. The time of the appearance of arrhythmia was recorded, and the percentage of delay was calculated in relation to the data obtained in the controls, pretreated with 0.9 percent sodium chloride solution only [B. Vargaftig and J. L. Coignet: European J. of Pharmacol. 6, 49 to 55 (1969); N. K. Dadkar and B. K. Bhattachariya: Arch. Int. Pharmacodyn. 212, 297 to 301 (1974); D. U. Nwagwu, T. L. Holcslaw and S. J. Stohs: Arch. Int. Pharmacodyn. 229, 219 to 226 (1977)].

[2] = in vivo; conditions: mouse
[3] = tested on: anaesthesized cats, fibrillation threshold of the heart; experiment: Determination of the fibrillation threshold in anaesthetized cats; assay type: in vivo; conditions: cat
Description: The chests of the cats were opened under chloralose-urethane anaesthesia, a bipolar stimulating electrode was fixed onto the heart, and the heart was stimulated electrically with a frequency of 20 Hz, under continuously increasing current strength, until a fibrillo-flattern could be observed. This current strength was considered as the fibrillation threshold of the animal.

[4] = tested on: left auricle of isolated rabbit heart; experiment: Electrophysiological tests in the isolated rabbit heart, left auricle; conditions: 2.0 mg/l, n = 4
Experimental: (§1) Hearts of rabbits of both sexes, weighing 1 to 2 kg, were removed, the right and left auricles and a segment of the right ventricle were prepared and placed into a vessel filled with nutrient solution. Bipolar platinum electrodes (a stimulating electrode and a lead electrode) were placed on the organ strips, and the electric stimulus threshold and the speed of impulse conduction were measured. The effective refractory period was determined on the basis of the maximal driving frequency.

[5] = tested on: right ventricle of isolated rabbit heart; experiment: Electrophysiological tests in the isolated rabbit heart, right ventricle; conditions: 2.0 mg/l, n = 4
Experimental: as §1

[6] = 2.0 mg/kg i.v., 2 min following treatment
[7] = 2.0 mg/kg i.v., 10 min following treatment
[8] = 2.0 mg/kg i.v., 20 min following treatment
[9] = 4.0 mg/kg i.v., 2 min following treatment
[10] = 4.0 mg/kg i.v., 10 min following treatment
[11] = 4.0 mg/kg i.v., 20 min following treatment
[12] = 20 mg/kg i.d., 10 minutes following treatment
[13] = 20 mg/kg i.d., 20 minutes following treatment
[14] = 20 mg/kg i.d., 30 minutes following treatment
[15] = 20 mg/kg i.d., 40 minutes following treatment
[16] = 20 mg/kg i.d., 50 minutes following treatment
[17] = 20 mg/kg i.d., 60 minutes following treatment
[18] = 20 mg/kg i.d., 70 minutes following treatment
[19] = 20 mg/kg i.d., 80 minutes following treatment
[20] = 20 mg/kg i.d., 90 minutes following treatment
[21] = 20 mg/kg i.d., 100 minutes following treatment

SMILES: CN(C)C(=N)NNc1c(Cl)cccc1Cl [Example 2, 1-(2,6-Dichlorophenyl)-4,4-dimethyl-aminoguanidine]
- change in vivo at 25 mg/kg ([1]; ip): 79%
- change in vivo at 50 mg/kg ([1]; ip): 156%
- change in vivo at 25 mg/kg ([1]; po): 39%
- change in vivo at 50 mg/kg ([1]; po): 71%
- change in vivo at 100 mg/kg ([1]; po): 150%
- LD50 ([2]; ip): 73 mg/kg
- LD50 ([2]; po): 220 mg/kg

SMILES: CCN(CC)C(=N)NNc1ccccc1Cl [Example 3, 1-(2-Chlorophenyl)-4,4-diethyl-aminoguanidine hydrochloride]
- change in vivo at 10 mg/kg ([1]; ip): 108%
- change in vivo at 20 mg/kg ([1]; ip): 68%

SMILES: CCN(CC)C(=N)NNc1ccccc1C [Example 4, 1-(2-Methyl-phenyl)-4,4-diethyl-aminoguanidine hydrochloride]
- change in vivo at 5 mg/kg ([1]; ip): 28%
- change in vivo at 10 mg/kg ([1]; ip): 77%

SMILES: Cc1cccc(C)c1NNC(=N)N(C)C [Example 5]
- Percentual change in the fibrillation threshold ([3]; 0.5 mg/kg i.v., 2 min following treatment): +18.75%
- Percentual change in the fibrillation threshold ([3]; 0.5 mg/kg i.v., 10 min following treatment): +40.75%
- Percentual change in the fibrillation threshold ([3]; 0.5 mg/kg i.v., 20 min following treatment): +37.6%
- Percentual change in the fibrillation threshold ([3]; 1.0 mg/kg i.v., 2 min following treatment): +35.2%
- Percentual change in the fibrillation threshold ([3]; 1.0 mg/kg i.v., 10 min following treatment): +55.2%
- Percentual change in the fibrillation threshold ([3]; 1.0 mg/kg i.v., 20 min following treatment): +48.4%
- Percentual change in the fibrillation threshold [3, 6]: +101.1%
- Percentual change in the fibrillation threshold [3, 7]: +93.0%
- Percentual change in the fibrillation threshold [3, 8]: +94.15%
- Percentual change in the fibrillation threshold [3, 9]: +153.3%
- Percentual change in the fibrillation threshold [3, 10]: +125.65%
- Percentual change in the fibrillation threshold [3, 11]: +124.0%
- Percentual change in the fibrillation threshold ([3]; 8.0 mg/kg i.v., 2 min following treatment): +392.8%
- Percentual change in the fibrillation threshold ([3]; 8.0 mg/kg i.v., 10 min following treatment): +354.5%
- Percentual change in the fibrillation threshold ([3]; 8.0 mg/kg i.v., 20 min following treatment): +310.25%
- Percentual change in the fibrillation threshold [3, 12]: +22.2%
- Percentual change in the fibrillation threshold [3, 13]: +29.0%
- Percentual change in the fibrillation threshold [3, 14]: +94.0%
- Percentual change in the fibrillation threshold [3, 15]: +103.7%
- Percentual change in the fibrillation threshold [3, 16]: +100.4%
- Percentual change in the fibrillation threshold [3, 17]: +105.8%
- Percentual change in the fibrillation threshold [3, 18]: +100.3%
- Percentual change in the fibrillation threshold [3, 19]: +121.5%
- Percentual change in the fibrillation threshold [3, 20]: +132.8%
- Percentual change in the fibrillation threshold [3, 21]: +132.3%
- change in vivo at 25 mg/kg ([1]; ip): 113%
- change in vivo at 50 mg/kg ([1]; ip): 155%
- change in vivo at 100 mg/kg ([1]; po): 111%
- LD50 ([2]; ip): 130 mg/kg
- LD50 ([2]; po): 400 mg/kg

SMILES: CN(C)C(=N)NNc1ccccc1Cl [Example 6]
- change in vivo at 50 mg/kg ([1]; ip): 114%
- change in vivo at 100 mg/kg ([1]; po): 70%

SMILES: Cc1ccccc1NNC(=N)N1CCCC1 [Example 7]
- change in vivo at 25 mg/kg ([1]; ip): 50%
- change in vivo at 50 mg/kg ([1]; ip): 128%
- change in vivo at 50 mg/kg ([1]; po): 54%
- change in vivo at 100 mg/kg ([1]; po): 137%

SMILES: CC1CCCCN1C(=N)NNc1ccccc1Cl (stereo not drawn) [Example 8]
- change in vivo at 5 mg/kg ([1]; ip): 32%
- change in vivo at 10 mg/kg ([1]; ip): 110%

SMILES: CN(C)C(=N)NNc1cccc(Cl)c1 [Example 9]
- change in vivo at 50 mg/kg ([1]; ip): 171%

SMILES: Cc1cccc(C)c1NNC(=N)N1CCCC1 [Example 11]
- Percentual change in the fibrillation threshold [3, 6]: +130.6%
- Percentual change in the fibrillation threshold [3, 7]: +149.0%
- Percentual change in the fibrillation threshold [3, 8]: +163.3%
- Percentual change in the fibrillation threshold [3, 9]: +176.0%
- Percentual change in the fibrillation threshold [3, 10]: +328.0%
- Percentual change in the fibrillation threshold [3, 11]: +316.0%
- Percentual change in the fibrillation threshold [3, 12]: +5.8%
- Percentual change in the fibrillation threshold [3, 13]: +22.0%
- Percentual change in the fibrillation threshold [3, 14]: +43.8%
- Percentual change in the fibrillation threshold [3, 15]: +79.6%
- Percentual change in the fibrillation threshold [3, 16]: +115%
- Percentual change in the fibrillation threshold [3, 17]: +118%
- Percentual change in the fibrillation threshold [3, 18]: +141%
- Percentual change in the fibrillation threshold [3, 19]: +198%
- Percentual change in the fibrillation threshold [3, 20]: +209.5%
- Percentual change in the fibrillation threshold [3, 21]: +272.5%

SMILES: CN(C)C(=N)NNc1ccccc1 [Example 18]
- change in vivo at 100 mg/kg ([1]; po): 74%

SMILES: CCc1cccc(C)c1NNC(=N)N(C)C [Example 21]
- change in vivo at 25 mg/kg ([1]; ip): 110%
- change in vivo at 50 mg/kg ([1]; ip): 86%

SMILES: Cc1ccccc1NNC(=N)N1CCOCC1 [Example 22]
- change in vivo at 50 mg/kg ([1]; ip): 100%

SMILES: Cc1cccc(C)c1OCC(C)N.Cl (stereo not drawn) [Mexiletin, 1-(2,6-Dimethylphenoxy)-2-aminopropane hydrochloride, reference compound]
- Percentual change in the fibrillation threshold ([3]; 10.0 mg/kg i.v., 10 min following treatment): +161.2%
- Percentual change in the fibrillation threshold ([3]; 10.0 mg/kg i.v., 20 min following treatment): +92.0%
- change in vivo at 5 mg/kg ([1]; ip): 3.5%
- change in vivo at 10 mg/kg ([1]; ip): 7.7%
- change in vivo at 25 mg/kg ([1]; ip): 33%
- change in vivo at 50 mg/kg ([1]; ip): 83%
- change in vivo at 75 mg/kg ([1]; ip): 162%
- change in vivo at 100 mg/kg ([1]; po): 93%
- Change in conduction time [4]: +24%
- Change in electric stimulus threshold [4]: 36%
- Change in max. driving frequency [4]: -32%
- Change in conduction time [5]: +11%
- Change in electric stimulus threshold [5]: +6%
- Change in max. driving frequency [5]: -28%

SMILES: C=C[C@H]1C[N@@]2CC[C@H]1C[C@@H]2[C@@H](O)c1ccnc2ccc(OC)cc12 [Quinidine, quinidine, reference compound]
- Percentual change in the fibrillation threshold ([3]; 10 mg/kg i.d., 10 minutes following treatment): +0.4%
- Percentual change in the fibrillation threshold ([3]; 10 mg/kg i.d., 20 minutes following treatment): +26.7%
- Percentual change in the fibrillation threshold ([3]; 10 mg/kg i.d., 30 minutes following treatment): +58.5%
- Percentual change in the fibrillation threshold ([3]; 10 mg/kg i.d., 40 minutes following treatment): +48.5%
- Percentual change in the fibrillation threshold ([3]; 10 mg/kg i.d., 50 minutes following treatment): +32.1%
- Percentual change in the fibrillation threshold ([3]; 10 mg/kg i.d., 70 minutes following treatment): +9.5%
- Percentual change in the fibrillation threshold ([3]; 10 mg/kg i.d., 80 minutes following treatment): +8.8%
- Percentual change in the fibrillation threshold ([3]; 10 mg/kg i.d., 90 minutes following treatment): +3.8%
- Percentual change in the fibrillation threshold ([3]; 10 mg/kg i.d., 100 minutes following treatment): 0.0%
